Assay results taken from patent publication US11225462B2, “Crystal forms of oxypyridine amide derivative and preparation method therefor” (JIANGSU HENGRUI MEDICINE CO., LTD., priority 2018, dated 2022).

Assays:
Assay type in all cases: physicochemical
[1] = DVS (dynamic vapor sorption) hygroscopicity characterization; details: for mass increase under normal conditions: 25° C. and 60% RH; for hygroscopicity according to guidelines for drug hygroscopicity test in China Pharmacopoeia (2015 edition) / mass increase as the humidity increases: 25° C., 10% RH to 80% RH; for mass increase under accelerated test conditions: 70% RH; for mass increase under extreme conditions: 90% RH; for desorption process and adsorption process of the sample: humidity change from 0% to 95%
Description: DVS refers to dynamic vapor sorption and is determined using SMS DVS Advantage at 25° C., with the humidity change of 50%-95%-0%-95%-50% and the stepping of 10% (5% for the last step) (the specific humidity range is determined in accordance with the corresponding plot, and the methods listed herein are those most commonly used), and the standard for determination is as follow: dm/dt is not more than 0.02%, and Tmax is not more than 360 min.

[2] = Influencing factor experiments (light, high temperature, high humidity, 30 days); details: for Crystal form: day 5 to day 10, time not clear
Description: Crystal forms A, B, D and F of the compound of formula (I) were spread and left open to the air, and under conditions of high temperature (40° C. and 60° C.), light (4500 Lux), high humidity (RH 75% and RH 90%), the stability thereof were investigated for a period of 30 days.

[3] = Long-term and accelerated stability experiments (3 months)
Description: The long-term (25° C., 60% RH) and accelerated (40° C., 75% RH) stability of crystal form A and crystal form F of the compound of formula (I) were investigated for 3 months.

CCC(=O)c1ccc(Cl)cc1-c1cc(=O)n([C@@H](CCOC(C)(C)C)C(=O)Nc2ccc(C(=O)O)cc2)cc1OC [Crystal form D, (S)-4-(4-(tert-butoxy)-2-(4-(5-chloro-2-propionylphenyl)-5-methoxy-2-oxopyridin-1(2H)-yl)butanamido)benzoic acid]
mass increase under normal conditions [1]: about 2.143%
hygroscopicity according to guidelines for drug hygroscopicity test in China Pharmacopoeia (2015 edition) [1]: hygroscopic (less than 15% but not less than 2%)
mass increase as the humidity increases [1]: about 2.420%
mass increase under accelerated test conditions [1]: about 2.494%
mass increase under extreme conditions [1]: about 3.422%
crystal form before and after DVS detection (XRPD comparison) [1]: crystallinity of the crystal form become worse
desorption process and adsorption process of the sample [1]: do not coincide
% Purity ([2]; 40° C., 5 days): 99.53%
Color and trait ([2]; 40° C., 5 days): Off-white
% Purity ([2]; 40° C., 10 days): 99.02%
Color and trait ([2]; 40° C., 10 days): Off-white
% Purity ([2]; 40° C., 30 days): 98.95%
Color and trait ([2]; 40° C., 30 days): Off-white
Crystal form ([2]; 40° C.): Amor-
% Purity ([2]; 60° C., 5 days): 99.40%
Color and trait ([2]; 60° C., 5 days): Off-white
% Purity ([2]; 60° C., 10 days): 99.31%
Color and trait ([2]; 60° C., 10 days): Off-white
% Purity ([2]; 60° C., 30 days): 99.09%
Color and trait ([2]; 60° C., 30 days): Off-white
Crystal form ([2]; 60° C.): Amor-
% Purity ([2]; 4500 Lux, 5 days): 99.58%
Color and trait ([2]; 4500 Lux, 5 days): Off-white
% Purity ([2]; 4500 Lux, 10 days): 99.57%
Color and trait ([2]; 4500 Lux, 10 days): Off-white
% Purity ([2]; 4500 Lux, 30 days): 99.26%
Color and trait ([2]; 4500 Lux, 30 days): Off-white
Crystal form ([2]; 4500 Lux): Amor-
% Purity ([2]; Initial condition, day 0): 99.59%
Color and trait ([2]; Initial condition, day 0): Off-white
% Purity ([2]; RH 75%, 5 days): 99.56%
% Weight gain ([2]; RH 75%, 5 days): 5.30%
Color and trait ([2]; RH 75%, 5 days): Off-white
% Purity ([2]; RH 75%, 10 days): 99.53%
% Weight gain ([2]; RH 75%, 10 days): 5.48%
Color and trait ([2]; RH 75%, 10 days): Off-white
% Purity ([2]; RH 75%, 30 days): 99.55%
% Weight gain ([2]; RH 75%, 30 days): 5.56%
Color and trait ([2]; RH 75%, 30 days): Off-white
Crystal form ([2]; RH 75%): Amor-
% Purity ([2]; RH 90%, 5 days): 99.57%
% Weight gain ([2]; RH 90%, 5 days): 7.45%
Color and trait ([2]; RH 90%, 5 days): Off-white
% Purity ([2]; RH 90%, 10 days): 99.54%
% Weight gain ([2]; RH 90%, 10 days): 8.67%
Color and trait ([2]; RH 90%, 10 days): Off-white
% Purity ([2]; RH 90%, 30 days): 99.55%
% Weight gain ([2]; RH 90%, 30 days): 9.53%
Color and trait ([2]; RH 90%, 30 days): Off-white
Crystal form ([2]; RH 90%): Amor-

CCC(=O)c1ccc(Cl)cc1-c1cc(=O)n([C@@H](CCOC(C)(C)C)C(=O)Nc2ccc(C(=O)O)cc2)cc1OC [Crystal form A, (S)-4-(4-(tert-butoxy)-2-(4-(5-chloro-2-propionylphenyl)-5-methoxy-2-oxopyridin-1(2H)-yl)butanamido)benzoic acid]
mass increase under normal conditions [1]: about 1.156%
hygroscopicity according to guidelines for drug hygroscopicity test in China Pharmacopoeia (2015 edition) [1]: slightly hygroscopic (less than 2% but not less than 0.2%)
mass increase as the humidity increases [1]: about 1.781%
mass increase under accelerated test conditions [1]: about 1.479%
mass increase under extreme conditions [1]: about 2.199%
crystal form before and after DVS detection (XRPD comparison) [1]: unchanged
desorption process and adsorption process of the sample [1]: basically coincide
% Purity ([2]; 40° C., 5 days): 98.74%
Color and trait ([2]; 40° C., 5 days): Yellow solid
% Purity ([2]; 40° C., 10 days): 98.70%
Color and trait ([2]; 40° C., 10 days): Yellow solid
% Purity ([2]; 40° C., 30 days): 98.48%
Color and trait ([2]; 40° C., 30 days): Yellow solid
% Purity ([2]; 60° C., 5 days): 98.73%
Color and trait ([2]; 60° C., 5 days): Yellow solid
% Purity ([2]; 60° C., 10 days): 98.68%
Color and trait ([2]; 60° C., 10 days): Yellow solid
% Purity ([2]; 60° C., 30 days): 98.50%
Color and trait ([2]; 60° C., 30 days): Yellow solid
% Purity ([2]; 4500 Lux, 5 days): 98.74%
Color and trait ([2]; 4500 Lux, 5 days): Yellow solid
% Purity ([2]; 4500 Lux, 10 days): 98.74%
Color and trait ([2]; 4500 Lux, 10 days): Yellow solid
% Purity ([2]; 4500 Lux, 30 days): 98.75%
Color and trait ([2]; 4500 Lux, 30 days): Yellow solid
% Purity ([2]; Initial condition, day 0): 98.76%
Color and trait ([2]; Initial condition, day 0): Yellow solid
% Purity ([2]; RH 75%, 5 days): 98.76%
% Weight gain ([2]; RH 75%, 5 days): 1.15%
Color and trait ([2]; RH 75%, 5 days): Yellow solid
% Purity ([2]; RH 75%, 10 days): 98.76%
% Weight gain ([2]; RH 75%, 10 days): 3.30%
Color and trait ([2]; RH 75%, 10 days): Yellow solid
% Purity ([2]; RH 75%, 30 days): 98.76%
% Weight gain ([2]; RH 75%, 30 days): 5.85%
Color and trait ([2]; RH 75%, 30 days): Yellow solid
% Purity ([2]; RH 90%, 5 days): 98.75%
% Weight gain ([2]; RH 90%, 5 days): 3.18%
Color and trait ([2]; RH 90%, 5 days): Yellow solid
% Purity ([2]; RH 90%, 10 days): 98.75%
% Weight gain ([2]; RH 90%, 10 days): 8.14%
Color and trait ([2]; RH 90%, 10 days): Yellow solid
% Purity ([2]; RH 90%, 30 days): 98.76%
% Weight gain ([2]; RH 90%, 30 days): 11.37%
Color and trait ([2]; RH 90%, 30 days): Yellow solid
physical and chemical stability (conclusion) ([2]; light, 40° C., 60° C., 75% RH or 90% RH for 30 days): good physical and chemical stability
% Purity 1 month ([3]; 25° C., 60% RH): 98.80%
% Purity 2 months ([3]; 25° C., 60% RH): 98.77%
% Purity 3 months ([3]; 25° C., 60% RH): 98.76%
% Purity Initial condition ([3]; 25° C., 60% RH): 98.79%
% Purity 1 month ([3]; 40° C., 75% RH): 98.79%
% Purity 2 months ([3]; 40° C., 75% RH): 98.75%
% Purity 3 months ([3]; 40° C., 75% RH): 98.74%
% Purity Initial condition ([3]; 40° C., 75% RH): 98.79%
physical and chemical stability (conclusion) ([3]; long-term (25° C., 60% RH) and accelerated (40° C., 75% RH) conditions for 3 months): good physical and chemical stability
